A word on the EC50: it is the concentration needed to bring the measured effect to its halfway point.

The experiment concerns the target T1, G protein-coupled receptor 119 (GPR-119) (Mesocricetus auratus, UniProt A0A1U8CD06).
T1 construct: hamster-derived β-cells containing G protein-coupled receptor 119 (GPR-119), HIT-T15 cells; host or cells: HIT-T15 (hamster pancreatic β-cells)
T1 sequence (A0A1U8CD06 1-334): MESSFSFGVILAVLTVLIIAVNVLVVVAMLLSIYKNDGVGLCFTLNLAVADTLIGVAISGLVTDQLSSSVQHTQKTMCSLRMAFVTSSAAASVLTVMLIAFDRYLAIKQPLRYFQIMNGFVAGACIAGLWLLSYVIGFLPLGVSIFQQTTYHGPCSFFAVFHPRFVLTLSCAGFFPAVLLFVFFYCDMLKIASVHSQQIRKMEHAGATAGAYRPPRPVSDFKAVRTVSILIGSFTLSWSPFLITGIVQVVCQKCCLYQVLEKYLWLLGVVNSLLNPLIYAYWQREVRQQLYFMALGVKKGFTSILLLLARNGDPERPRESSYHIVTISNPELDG
Nature of the experiment: cAMP activity in HIT-T15 cells (cAMP dynamic kit, FRET). The format is cell-based, hamster. The method, then: To check whether the cyclohexene derivatives according to the present invention activate cyclic adenosine monophosphate (cAMP), experiments were carried out, as follows.
The HIT-T15 cells were plated on a 96-well plate at 60,000 cells per well. On the next day of plating, the cells were treated with a varying concentration of each of the example compounds according to the present invention, and incubated at 37° C. for an hour. In this case, each of the treated compounds was used at six concentrations, ranging from 0.0032 to 10 μM, to treat the cells.
The cyclic adenosine monophosphate (cAMP) activity was measured according to the manufacturer's instruction using a cAMP dynamic kit commercially available from Cis Bio Inc. (Bedford, Mass.). The cells were lysed, and a level of cAMP was determined by a competitive immunoassay using D2-labeled cAMP and a cryptate-labeled anti-cAMP antibody. Fluorescence was read in Flex Station (Molecular Devices). […] Unlabeled cAMP in the cell lysate competed with the D2-labeled cAMP against the cryptate-labeled antibody. Since a decrease in the measured intensity of the FRET signals represents a level of cAMP in the cells, the cAMP activities of the compounds are calculated as a change in FRET signals by adjusting an amount of dimethyl sulfoxide (DMSO).

Where [1] appears, read: 1 hour at 37° C., six concentrations 0.0032 to 10 μM, read-out: EC50.

Like-named read-outs stand apart in the source and are kept apart here.

Turning to `CCc1cnc(N2CCC(COc3ccc(C4=CCC(C(=O)N5CCCC5)CC4)cc3C#N)CC2)nc1` (stereo not shown) [Example 386, 2-((1-(5-ethylpyrimidin-2-yl)piperidin-4-yl)methoxy)-5-(4-(pyrrolidine-1-carbonyl)cyclohex-1-enyl)benzonitrile], under setting [1], the EC50 was 64 nM.
Turning to `CCc1cnc(N2CCC(COc3ccc(C4=CCC(C(=O)N(CC)CCO)CC4)c(F)c3)CC2)nc1` (stereo not shown) [Example 438, N-ethyl-4-(4-((1-(5-ethylpyrimidin-2-yl)piperidin-4-yl)methoxy)-2-fluorophenyl)-N-(2-hydroxyethyl)cyclohex-3-enecarboxamide], the EC50 was 23 nM under setting [1] and at most 50 nM (Table 2, read-out: EC50 value).
On the same counts, the results for `O=C(C1CC=C(c2ccc(OCC3CCN(C(=O)C4(C(F)(F)F)CCCC4)CC3)c(F)c2)CC1)N1CCOCC1` (stereo not shown) [Example 450, (4-(3-fluoro-4-((1-(1-(trifluoromethyl)cyclopentanecarbonyl)piperidin-4-yl)methoxy)phenyl)cyclohex-3-enyl)(morpholino)methanone] are 27 nM and at most 50 nM.
Consider `CCCNC(=O)N1CCN(C(=O)C2CC=C(c3ccc(OCC4CCN(c5ncc(CC)cn5)CC4)cc3)CC2)CC1` (stereo not shown) [Example 412, 4-(4-(4-((1-(5-ethylpyrimidin-2-yl)piperidin-4-yl)methoxy)phenyl)cyclohex-3-enecarbonyl)-N-propylpiperazine-1-carboxamide], for which the 50% effective concentration (EC50) was 37 nM under setting [1] and at most 50 nM (Table 2, read-out: EC50 value).
In the same order, the values of `CC(C)c1noc(N2CCC(COc3ccc(C4=CCC(C(=O)N5CCN(C6CC6)CC5)CC4)cn3)CC2)n1` (stereo not shown) [Example 355, (4-cyclopropylpiperazin-1-yl)(4-(6-((1-(3-isopropyl-1,2,4-oxadiazol-5-yl)piperidin-4-yl)methoxy)pyridin-3-yl)cyclohex-3-enyl)methanone] are 46 nM and at most 50 nM.
For `CCc1cnc(N2CCC(COc3ccc(C4=CCC(C(=O)N5CCN(CCCO)CC5)CC4)cc3)CC2)nc1` (stereo not shown) [Example 380, (4-(4-((1-(5-ethylpyrimidin-2-yl)piperidin-4-yl)methoxy)phenyl)cyclohex-3-enyl)(4-(3-hydroxypropyl)piperazin-1-yl)methanone], under setting [1], the half-maximal effective concentration (EC50) came to 79 nM.
As to `CCc1cnc(N2CCC(COc3ccc(C4=CCC(C(=O)NC5CCCCC5)CC4)cc3F)CC2)nc1` (stereo not shown) [Example 305, N-cyclohexyl-4-(4-((1-(5-ethylpyrimidin-2-yl)piperidin-4-yl)methoxy)-3-fluorophenyl)cyclohex-3-enecarboxamide], the EC50 is 24 nM under setting [1] and at most 50 nM (Table 2, read-out: EC50 value).
On the same counts, the results for `CCc1cnc(N2CCC(COc3ccc(C4=CCC(C(=O)N5CCC(CCO)CC5)CC4)cc3F)CC2)nc1` (single isomer, unassigned; (-)) [Example 430, (−)-(4-(4-((1-(5-ethylpyrimidin-2-yl)piperidin-4-yl)methoxy)-3-fluorophenyl)cyclohex-3-enyl)(4-(2-hydroxyethyl)piperidin-1-yl)methanone] are 9 nM and at most 50 nM.
In the same order, the values of `CCc1cnc(N2CCC(COc3ccc(C4=CCC(C(=O)N(C)CCCO)CC4)cc3F)CC2)nc1` (stereo not shown) [Example 376, 4-(4-((1-(5-ethylpyrimidin-2-yl)piperidin-4-yl)methoxy)-3-fluorophenyl)-N-(3-hydroxypropyl)-N-methylcyclohex-3-enecarboxamide] are 10.5 nM and at most 50 nM.
On the same counts, the results for `CC(C)(C)OC(=O)N1CCC(COc2ccc(C3=CCC(C(=O)N4CCCC4)CC3)cc2F)CC1` (stereo not shown) [Example 392, tert-butyl 4-((2-fluoro-4-(4-(pyrrolidine-1-carbonyl)cyclohex-1-enyl)phenoxy)methyl)piperidine-1-carboxylate] are 10 nM and at most 50 nM.
As to `CCc1cnc(N2CCC(COc3ccc(C4=CCC(C(=O)N5CCN(C(=O)OC(C)(C)C)CC5)CC4)cc3F)CC2)nc1` (stereo not shown) [Example 383, tert-butyl 4-(4-(4-((1-(5-ethylpyrimidin-2-yl)piperidin-4-yl)methoxy)-3-fluorophenyl)cyclohex-3-enecarbonyl)piperazine-1-carboxylate], the half-maximal effective concentration (EC50) runs as follows: under setting [1], 48 nM; (Table 2, read-out: EC50 value) at most 50 nM.
In the case of `CCc1cnc(N2CCC(COc3ccc(C4=CCC(C(=O)N5C/C(=N\OC)C(CO)(CO)C5)CC4)cc3)CC2)nc1` (stereo not shown) [Example 253, (Z)-(3,3-bis(hydroxymethyl)-4-(methoxyimino)pyrrolidin-1-yl)(4-(4-((1-(5-ethylpyrimidin-2-yl)piperidin-4-yl)methoxy)phenyl)cyclohex-3-enyl)methanone], the concentration for a half-maximal effect (EC50) (Table 2, read-out: EC50 value) was at most 50 nM.
For the molecule `CC(C)OC(=O)N1CCC(COc2ccc(C3=CCC(C(=O)N4CCCC4)CC3)cc2F)CC1` (stereo not shown) [Example 401, isopropyl 4-((2-fluoro-4-(4-(pyrrolidine-1-carbonyl)cyclohex-1-enyl)phenoxy)methyl)piperidine-1-carboxylate], the EC50 is 34 nM under setting [1] and at most 50 nM (Table 2, read-out: EC50 value).
In the same order, the values of `CCc1cnc(N2CCC(COc3ccc(C4=CCC(C(=O)N5CCC(CO)CC5)CC4)c(F)c3)CC2)nc1` (stereo not shown) [Example 432, (4-(4-((1-(5-ethylpyrimidin-2-yl)piperidin-4-yl)methoxy)-2-fluorophenyl)cyclohex-3-enyl)(4-(hydroxymethyl)piperidin-1-yl)methanone] are 29 nM and at most 50 nM.
In the case of `CC(C)c1noc(N2CCC(COc3ccc(C4=CCC(C(=O)N5CCN(C)CC5)CC4)cc3F)CC2)n1` (stereo not shown) [Example 382, (4-(3-fluoro-4-((1-(3-isopropyl-1,2,4-oxadiazol-5-yl)piperidin-4-yl)methoxy)phenyl)cyclohex-3-enyl)(4-methylpiperazin-1-yl)methanone], the EC50 under setting [1] stood at 42 nM and the 50% effective concentration (EC50) (Table 2, read-out: EC50 value) is at most 50 nM.
In the same order, the values of `CC(C)OC(=O)N1CCC(COc2ccc(C3=CCC(C(=O)N4CCOCC4)CC3)cc2F)CC1` (stereo not shown) [Example 444, isopropyl 4-((2-fluoro-4-(4-(morpholine-4-carbonyl)cyclohex-1-enyl)phenoxy)methyl)piperidine-1-carboxylate] are 26 nM and at most 50 nM.
In the case of `CC(C)(C)OC(=O)N1CCC(COc2ccc(C3=CCC(C(=O)N4CCOCC4)CC3)cc2F)CC1` (single isomer, unassigned; (-)) [Example 443, (−)-tert-butyl 4-((2-fluoro-4-(4-(morpholine-4-carbonyl)cyclohex-1-enyl)phenoxy)methyl)piperidine-1-carboxylate], the EC50 under setting [1] worked out at 38 nM.
For the molecule `CCc1cnc(N2CCC(COc3ccc(C4=CCC(C(=O)N5CC(F)(F)C(F)(F)C5)CC4)c(F)c3)CC2)nc1` (stereo not shown) [Example 455, (4-(4-((1-(5-ethylpyrimidin-2-yl)piperidin-4-yl)methoxy)-2-fluorophenyl)cyclohex-3-enyl)(3,3,4,4-tetrafluoropyrrolidin-1-yl)methanone], the EC50 was 18 nM under setting [1] and at most 50 nM (Table 2, read-out: EC50 value).
In the same order, the values of `CCc1cnc(N2CCC(COc3ccc(C4=CCC(C(=O)N5CCSCC5)CC4)cc3C)CC2)nc1` (stereo not shown) [Example 418, (4-(4-((1-(5-ethylpyrimidin-2-yl)piperidin-4-yl)methoxy)-3-methylphenyl)cyclohex-3-enyl)(thiomorpholino)methanone] are 35 nM and at most 50 nM.
On the same counts, the results for `CC(C)c1noc(N2CCC(COc3ccc(C4=CCC(C(=O)N5CCCC5)CC4)cc3F)CC2)n1` (stereo not shown) [Example 331, (4-(3-fluoro-4-((1-(3-isopropyl-1,2,4-oxadiazol-5-yl)piperidin-4-yl)methoxy)phenyl)cyclohex-3-enyl)(pyrrolidin-1-yl)methanone] are 11 nM and at most 50 nM.
As for `CC(C)c1noc(N2CCC(COc3ccc(C4=CCC(C(=O)N5CCC(=O)CC5)CC4)cc3F)CC2)n1` (stereo not shown) [Example 345, 1-(4-(3-fluoro-4-((1-(3-isopropyl-1,2,4-oxadiazol-5-yl)piperidin-4-yl)methoxy)phenyl)cyclohex-3-enecarbonyl)piperid in-4-one], the EC50 was 36 nM (EC50 (nM), 1 hour at 37° C., six concentrations 0.0032 to 10 μM) and at most 50 nM (EC50 value, Table 2).
For the molecule `CC(C)(C)OC(=O)N1CCC(COc2ccc(C3=CCC(C(=O)N4CCOCC4)CC3)nc2)CC1` (stereo not shown) [Example 327, tert-butyl 4-((6-(4-(morpholine-4-carbonyl)cyclohex-1-enyl)pyridin-3-yloxy)methyl)piperidine-1-carboxylate], the EC50 under setting [1] was determined as 80 nM.
With `CCc1cnc(N2CCC(COc3ccc(C4=CCC(C(=O)N5CCC[C@H]5CO)CC4)cc3)CC2)nc1` (single isomer, unassigned; (-)) [Example 465], under setting [1], the EC50 amounted to 110 nM.
